{
  "source": "patent US20230405003A1",
  "about": "“APPLICATION OF THYMIDINE DERIVATIVE IN PREPARATION OF DRUGS” (ONQUALITY PHARMACEUTICALS CHINA LTD., priority 2020, published 2023)",
  "format_in_all_cases": "in vivo",
  "key": {"[1]": {"system": "hand-foot syndrome caused by capecitabine in SD rats", "test": "Rat model of hand-foot syndrome caused by capecitabine, gel application", "conditions": "capecitabine 4000 mg/kg once daily, 40 days; for Control Rate: SD rats; for inhibition in vivo at 3 %: Rattus norvegicus, topical, 960 h, rats, gel 3 wt%", "method_in_brief": "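Female SD rats (~200 g, n=10/group) were given daily oral capecitabine (castor oil/ethanol 1:1, diluted with PBS). Thymidine derivative gel, alone or combined with uridine derivative, or blank gel was applied to both hind paws for ~4 h daily until blank controls developed hand-foot syndrome. Control rate was blank incidence minus treated incidence; paws were also examined by HE and IHC.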"}, "[2]": {"system": "hand-foot syndrome caused by capecitabine in Balb/c mice", "test": "Mouse model of hand-foot syndrome caused by capecitabine, gel application or oral administration", "conditions": "Mus musculus, capecitabine 1000 mg/kg once daily; for inhibition in vivo at 2 % / inhibition in vivo at 0.5 % / inhibition in vivo at 5 %: topical, 360 h, 15 days; for inhibition in vivo at 2 %: gel 2 wt%; for inhibition in vivo at 300 mg/kg: 192 h, oral 300 mpk twice per day, 8 days; for inhibition in vivo at 0.5 %: gel 0.5 wt%; for inhibition in vivo at 5 %: gel 5 wt%", "description": "A mouse animal model was established. 6-week aged male Balb/c mice were administered with capecitabine by daily gavage. After a few days, mice's paws developed hand-foot syndrome symptoms (similar to the results of the rat model, such as, in FIG. 13). Similar to the human body, mice developed hand-foot syndrome in the forepaws and hind paws after oral administration of capecitabine. The causes of the two are the same, and the disorder is also very similar. Therefore, mice are very good animal models for simulating the hand-foot syndrome caused by capecitabine.\nAfter Balb/c mice were fed and adapted for one week (about 20 g), the mice were divided into groups, with 10 mice in each group. Then, the mice were subject to gavage administration. Capecitabine was dissolved in normal saline with pH=8, and the gavage dose was not greater than 0.3 mL at each time. After gavage, the blank gel was applied to the forepaws and the hind paws (about 4*0.5 cm*0.5 cm) in group of blank gel, and gels containing different drugs were applied to the forepaws and the hind paws (about 4*0.5 cm*0.5 cm) in group of administration. After application, the mice were fixed in Elizabethan collar for 4 hours. After 4 hours, the mice were released, wiped with clean water to remove any residual drug at the application site, and allowed back to the cage. The gavage and application tests are repeated daily until the group of blank has developed obvious hand-foot syndrome. […] Additionally, the thymidine derivative and the combination of thymidine derivative and uridine derivative were orally administered for observing the relief of the hand-foot syndrome. In examples 41-48, thymidine derivative and/or uridine derivative were/was applied, and in examples 49-52, thymidine derivative and/or uridine derivative were/was administered orally.\nTable 5 lists the combinations of animal experiments of capecitabine and thymidine derivative (or a combination of thymidine derivative and uridine derivative) and the corresponding experimental results (wherein the data in the column of control rate=the occurrence rate of hand-foot syndrome in group of blank—the occurrence rate of hand-foot syndrome in group of administration).\nThe effect of thymidine derivative or a combination of thymidine derivative and uridine derivative on a mouse model with chemotherapeutic drug (capecitabine)-induced hand-foot syndrome was tested according to the method in Examples 41-52. Wherein, the drugs were administered transdermally for Examples 119-120 and orally for Examples 121-123.\nThe test thymidine derivative or the combination of thymidine derivative and uridine derivative, as well as the final concentration of the test compounds were shown in Table 9. Table 9 lists the combinations of animal experiments of capecitabine and the thymidine derivative gel (or a compounded gel of thymidine derivative and uridine derivative) and the corresponding experimental results (wherein the data in the column of control rate=the occurrence rate of hand-foot syndrome in Group of blank—the occurrence rate of hand-foot syndrome in Group of administration)."}, "[3]": {"system": "5-FU-induced diarrhea in Balb/c mice", "test": "5-FU-induced diarrhea mouse model (70 mg/kg/d i.p. for three days)", "conditions": "5-FU 70 mg/kg/d i.p. three days; for Food Uptake / Survival Rate / Diarrhea Grade: 12 days; for Diarrhea Grade: score 0-4; for Δ % BW on Day 9: (BW day 0 − BW day 9)/BW day 0, ± SEM", "description": "Male Balb/c mice (7-8 weeks, 23-25 g) were i.p. injected at a dose of 70 mg/kg/d, and the injection was performed for three days. The mice in the group of blank was injected with 0.9% NaCl, and evaluated for the effect by observing the change of diarrhea grade, food uptake, and weight change. The severity of diarrhea was scored in accordance with the following standards: 0: normal feces, 1: soft feces, 2: slightly wet, soft feces, 3: wet, unformed feces, with moderate coloration in perianal region, 4: watery feces with heavy coloration of hair in perianal region. The severity of diarrhea was evaluated by occurrence scores of various grades of diarrhea (Scores 0 to 4) and average score of diarrhea. […] The models were stable, and satisfied the experimental requirements.\nThe male Balb/c mice (7-8 weeks, 23-25 g) were fed and adapted for 1 week, and then divided into groups, with 10 mice in each group for administration test. 5-FU was dissolved in a 0.9% NaCl solution, and the mice in the model group and the treatment group were all i.p. injected at a dose of 70 mg/kg/d. The administration doses are shown in Table 6, and the modeling was completed in three days. While modeling of injection administration of 5-FU, the thymidine derivative or the combination of thymidine derivative and uridine derivative was administered by gavage, a series of compounds were dissolved in a PBS solution containing 5% DMSO+1% HPMC. The mice were daily observed for counting the diarrhea status, food uptake, weight change (A % BW) (the weight changes recorded in the table is the value on Day 9) and other information. After 12 days, the experiments were completed and statistically analyzed for the results."}, "[4]": {"conditions": "read-out: Control Rate Forepaws"}, "[5]": {"conditions": "read-out: Control Rate Hindpaws"}},
  "note": "Like-named read-outs stand apart in the source and are kept apart here.",
  "data": [
    {"smiles": "CC(=O)OC[C@H]1O[C@@H](n2cc(C)c(=O)[nH]c2=O)C[C@@H]1O", "note": "[T3]", "values": [
      {"measurement": "Control Rate", "setting": "[1]; gel 1 wt% on hind paws", "result": 27.50, "unit": "%"},
      {"measurement": "inhibition in vivo at 2 %", "setting": "[2]; [4]", "result": 20, "unit": "%"},
      {"measurement": "inhibition in vivo at 2 %", "setting": "[2]; [5]", "result": 30, "unit": "%"},
      {"measurement": "Food Uptake", "setting": "[3]; 50 mpk BID PO", "result": 109},
      {"measurement": "Survival Rate", "setting": "[3]; 50 mpk BID PO", "result": 70, "unit": "%"},
      {"measurement": "Diarrhea Grade", "setting": "[3]; 50 mpk BID PO", "result": 1.6},
      {"measurement": "Δ % BW on Day 9", "setting": "[3]; 50 mpk BID PO", "result": "8.4% ± 3.2"}
    ]},
    {"smiles": "CC(=O)O[C@H]1C[C@H](n2cc(C)c(=O)[nH]c2=O)O[C@@H]1CO", "note": "[T2]", "values": [
      {"measurement": "Control Rate", "setting": "[1]; gel 1 wt% on hind paws", "result": 23.33, "unit": "%"},
      {"measurement": "inhibition in vivo at 2 %", "setting": "[2]; [4]", "result": 40, "unit": "%"},
      {"measurement": "inhibition in vivo at 2 %", "setting": "[2]; [5]", "result": 27.5, "unit": "%"},
      {"measurement": "Food Uptake", "setting": "[3]; 75 mpk BID PO", "result": 123},
      {"measurement": "Survival Rate", "setting": "[3]; 75 mpk BID PO", "result": 100, "unit": "%"},
      {"measurement": "Diarrhea Grade", "setting": "[3]; 75 mpk BID PO", "result": 1.4},
      {"measurement": "Δ % BW on Day 9", "setting": "[3]; 75 mpk BID PO", "result": "6.6% ± 3.1"}
    ]},
    {"smiles": "CC(=O)OCC1OC(n2cc(C)c(=O)[nH]c2=O)CC1OC(C)=O", "note": "(stereo not drawn) [T1]", "values": [
      {"measurement": "inhibition in vivo at 3 %", "setting": "[1]; [4]", "result": 57.1, "unit": "%"},
      {"measurement": "inhibition in vivo at 3 %", "setting": "[1]; [5]", "result": 71.4, "unit": "%"},
      {"measurement": "Control Rate", "setting": "[1]; gel 0.5 wt% on hind paws", "result": 20.00, "unit": "%"},
      {"measurement": "Control Rate", "setting": "[1]; gel 2 wt% on hind paws", "result": 27.50, "unit": "%"},
      {"measurement": "Control Rate", "setting": "[1]; gel 5 wt% on hind paws", "result": 56.67, "unit": "%"},
      {"measurement": "inhibition in vivo at 300 mg/kg", "setting": "[2]; [4]", "result": 80, "unit": "%"},
      {"measurement": "inhibition in vivo at 300 mg/kg", "setting": "[2]; [5]", "result": 90, "unit": "%"},
      {"measurement": "inhibition in vivo at 0.5 %", "setting": "[2]; [4]", "result": 30, "unit": "%"},
      {"measurement": "inhibition in vivo at 0.5 %", "setting": "[2]; [5]", "result": 20, "unit": "%"},
      {"measurement": "inhibition in vivo at 2 %", "setting": "[2]; [4]", "result": 45.6, "unit": "%"},
      {"measurement": "inhibition in vivo at 2 %", "setting": "[2]; [5]", "result": 34.4, "unit": "%"},
      {"measurement": "inhibition in vivo at 5 %", "setting": "[2]; [4]", "result": 67.8, "unit": "%"},
      {"measurement": "inhibition in vivo at 5 %", "setting": "[2]; [5]", "result": 78.9, "unit": "%"},
      {"measurement": "Food Uptake", "setting": "[3]; 37 mpk BID PO", "result": 155},
      {"measurement": "Survival Rate", "setting": "[3]; 37 mpk BID PO", "result": 100, "unit": "%"},
      {"measurement": "Diarrhea Grade", "setting": "[3]; 37 mpk BID PO", "result": 1.4},
      {"measurement": "Food Uptake", "setting": "[3]; 75 mpk BID PO", "result": 100},
      {"measurement": "Survival Rate", "setting": "[3]; 75 mpk BID PO", "result": 80, "unit": "%"},
      {"measurement": "Diarrhea Grade", "setting": "[3]; 75 mpk BID PO", "result": 1.3},
      {"measurement": "Food Uptake", "setting": "[3]; 150 mpk BID PO", "result": 89},
      {"measurement": "Survival Rate", "setting": "[3]; 150 mpk BID PO", "result": 80, "unit": "%"},
      {"measurement": "Diarrhea Grade", "setting": "[3]; 150 mpk BID PO", "result": 1.5},
      {"measurement": "Δ % BW on Day 9", "setting": "[3]; 37 mpk BID PO", "result": "4.3% ± 3.7"},
      {"measurement": "Δ % BW on Day 9", "setting": "[3]; 75 mpk BID PO", "result": "3.8% ± 1.6"},
      {"measurement": "Δ % BW on Day 9", "setting": "[3]; 150 mpk BID PO", "result": "16.3% ± 6.5"}
    ]}
  ]
}
